Where two headings read alike, the source gives them in different places.
Key:
[1] = molecular target: T1, human CB1 receptor (Homo sapiens, UniProt P21554); assay: biochemical; format: binding; conditions: [3H]CP55,940 0.1 nM, CHO cell membranes; read-out: Ki ± SEM Human CB1
T1 construct: expressed in transfected cells; host or cells: CHO cells (membrane preparations)

[2] = molecular target: T2, human CB2 receptor (Homo sapiens, UniProt P34972); assay: biochemical; format: binding; conditions: [3H]CP55,940 0.1 nM, CHO cell membranes; read-out: Ki ± SEM Human CB2
T2 construct: expressed in transfected cells; host or cells: CHO cells (membrane preparations)
T2 sequence (P34972 whole entry): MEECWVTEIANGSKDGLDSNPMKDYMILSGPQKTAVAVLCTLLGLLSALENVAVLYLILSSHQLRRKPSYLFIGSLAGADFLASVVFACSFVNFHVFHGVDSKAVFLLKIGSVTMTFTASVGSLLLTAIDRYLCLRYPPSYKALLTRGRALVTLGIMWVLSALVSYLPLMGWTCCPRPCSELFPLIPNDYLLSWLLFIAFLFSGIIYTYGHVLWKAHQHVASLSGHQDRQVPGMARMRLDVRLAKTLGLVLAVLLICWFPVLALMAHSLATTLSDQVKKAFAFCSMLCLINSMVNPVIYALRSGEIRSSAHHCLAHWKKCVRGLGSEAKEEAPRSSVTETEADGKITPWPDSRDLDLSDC

[3] = molecular target: CB1 receptor; conditions: cited from earlier work
[4] = molecular target: CB2 receptor; conditions: cited from earlier work
[5] = molecular target: CB2 receptor; conditions: membrane potential assay, cited from earlier work
[6] = molecular target: T1, human CB1 receptor; assay: cAMP accumulation assay, CHO cells stably expressing CB1; format: cell-based; conditions: compound at 10 µM; normalized to CP55,940 (1 µM)
Description: (§1) cAMP accumulation assays were performed also as previously described. Briefly, CHO cells stably expressing the respective human CB receptor subtype CB1 or CB2 were seeded overnight. […] After incubation for 15 min the buffer was removed, and the cells were lyzed. The amount of cAMP was determined in a radioligand binding assay by incubating 50 µL of the cell lysate with 3 nM [^3H]cAMP in the presence of protein preparations from bovine adrenal glands (cAMP binding protein). Bound and unbound radioligand were separated by rapid filtration through GF/B filters, and radioactivity was determined by liquid scintillation counting. To test for antagonistic activity, test compounds were added to Hank’s buffered salt solution (HBSS) containing 10% dimethyl sulfoxide (DMSO), 10 min after the application of Ro-20-1724, and the mixture was incubated for 20 min at 37 °C.
(§2) As a next step, we investigated the compounds in cAMP accumulation assays, to obtain information on their functionality (Fig. 3). CB receptors are Gi protein-coupled and thus reduce the levels of cAMP in the cells upon activation.

[7] = molecular target: T3, human GPR18 (Homo sapiens, UniProt Q14330); assay: β-Arrestin PathHunter assay, recombinant CHO cells expressing GPR18; format: cell-based; conditions: for Human GPR18 % activation: agonist mode; for Human GPR18 % activation / Human GPR18 % inhibition: value in parentheses; for Human GPR18 % inhibition: antagonist mode
T3 construct: host or cells: CHO cells
T3 sequence (Q14330 1-331): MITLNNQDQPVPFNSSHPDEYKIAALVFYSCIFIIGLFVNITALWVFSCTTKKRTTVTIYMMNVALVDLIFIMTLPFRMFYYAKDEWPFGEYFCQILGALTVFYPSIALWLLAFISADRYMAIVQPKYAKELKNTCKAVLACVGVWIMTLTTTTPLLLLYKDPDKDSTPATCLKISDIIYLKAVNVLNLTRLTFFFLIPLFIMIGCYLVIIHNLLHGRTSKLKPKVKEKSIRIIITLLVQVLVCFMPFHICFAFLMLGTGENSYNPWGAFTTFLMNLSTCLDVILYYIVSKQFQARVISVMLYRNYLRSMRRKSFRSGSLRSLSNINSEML
Description: (§3) β-Arrestin assays were performed in recombinant CHO cells expressing either the human GPR18 or the human GPR55 as described before using the β-galactosidase enzyme fragment complementation technology (β-arrestin PathHunter™ assay; DiscoverX, Fremont, CA, USA).
(§4) The orphan receptors GPR18 and GPR55 can interact with certain natural and synthetic cannabinoids. […] Therefore, we investigated the new series of indole, indazole, benzimidazole and carbazole-derived structures in β-arrestin assays at GPR18 and GPR55 (Table 2). […] For the lipophilic substitutions, the following rank order of potency was observed: ethyl > methyl > chloro > fluoro. Therefore, it can be concluded that a lipophilic substitution in position 4 of the naphthyl residue was a requirement for GPR55 inhibition.

[8] = molecular target: CB1 receptor; conditions: membrane potential assay, cited from earlier work
[9] = molecular target: T2, human CB2 receptor; assay: cAMP accumulation assay, CHO cells stably expressing CB2; format: cell-based; conditions: compound at 10 µM; normalized to CP55,940 (1 µM)
Description: as §1, §2

[10] = molecular target: T4, human GPR55 (Homo sapiens, UniProt Q9Y2T6); assay: β-Arrestin PathHunter assay, recombinant CHO cells expressing GPR55; format: cell-based; conditions: for Human GPR55 % activation: agonist mode
T4 construct: host or cells: CHO cells
T4 sequence (Q9Y2T6 whole entry): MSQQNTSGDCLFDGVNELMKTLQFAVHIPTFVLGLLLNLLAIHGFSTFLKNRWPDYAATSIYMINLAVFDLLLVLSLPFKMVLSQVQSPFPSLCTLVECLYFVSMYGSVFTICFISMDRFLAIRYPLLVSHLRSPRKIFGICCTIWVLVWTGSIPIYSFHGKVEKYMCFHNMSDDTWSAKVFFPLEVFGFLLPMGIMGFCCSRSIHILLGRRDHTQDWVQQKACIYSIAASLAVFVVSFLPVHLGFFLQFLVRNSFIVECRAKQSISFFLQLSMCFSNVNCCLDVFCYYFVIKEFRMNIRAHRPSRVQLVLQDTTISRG
Description: as §3, §4

[11] = molecular target: CB1 receptor; design: method as in Buchler et al. [37]; conditions: versus 0.5 nM [3H]CP55,940; ref Buchler et al. [37]; cited from earlier work
[12] = molecular target: CB2 receptor; design: method as in Wiley et al. [41]; conditions: versus 0.62 nM [3H]CP55,940; ref Wiley et al. [41]; cited from earlier work
[13] = molecular target: CB1 receptor; design: method as in Wiley et al. [41]; conditions: versus 0.62 nM [3H]CP55,940; ref Wiley et al. [41]; cited from earlier work

T1 sequence (P21554 whole entry): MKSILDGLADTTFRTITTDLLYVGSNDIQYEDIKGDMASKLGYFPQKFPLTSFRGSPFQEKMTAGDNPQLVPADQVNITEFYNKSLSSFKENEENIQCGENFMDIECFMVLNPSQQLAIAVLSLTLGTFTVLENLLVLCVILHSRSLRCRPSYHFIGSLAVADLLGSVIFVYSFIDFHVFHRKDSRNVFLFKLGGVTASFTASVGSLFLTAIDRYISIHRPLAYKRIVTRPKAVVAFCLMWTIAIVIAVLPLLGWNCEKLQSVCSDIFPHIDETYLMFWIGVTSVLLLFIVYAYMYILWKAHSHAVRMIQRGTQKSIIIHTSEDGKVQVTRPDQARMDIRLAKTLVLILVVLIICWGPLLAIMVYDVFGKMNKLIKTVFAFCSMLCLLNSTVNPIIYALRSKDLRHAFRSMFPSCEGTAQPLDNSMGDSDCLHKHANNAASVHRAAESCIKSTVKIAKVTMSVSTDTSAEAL

SMILES: CCCCCn1cc(C(=O)c2cccc3ccccc23)c2ccccc21 [compound 3, JWH-018, reference compound]
- Ki [1]: 1.51 ± 0.67 nM
- Ki [2]: 2.24 ± 1.2 nM
- Ki [3]: 9 nM
- Ki [4]: 2.9 nM

SMILES: COC(=O)[C@@H](NC(=O)c1nn(CCCCCF)c2ccccc12)C(C)(C)C [compound 11, 5F-ADB]
- EC50 ([5]; ref Banister et al. [38]): 7.5 nM
- CB1 receptor activation in cAMP accumulation assay (in words) [6]: partial activation
- EC50 [7]: > 10000 nM
- IC50 [7]: > 10000 nM
- Human GPR18 % activation [7]: > 10 (10%)
- Ki [1]: 23.3 ± 10.2 nM
- Ki [2]: 5.99 ± 2.47 nM
- EC50 ([8]; ref Banister et al. [38]): 0.59 nM
- CB2 receptor activation in cAMP accumulation assay (in words) [9]: full agonists
- EC50 [10]: > 10000 nM
- IC50 [10]: > 10000 nM
- Human GPR55 % activation ([10]; value in parentheses): 0%
- Human GPR55 % inhibition ([10]; antagonist mode versus LPI 1 µM, value in parentheses): 6%

SMILES: CC(C)[C@H](NC(=O)c1nn(CCCCCF)c2ccccc12)C(N)=O [compound 16, 5F-AB-PINACA]
- EC50 ([5]; ref Banister et al. [42]): 2.6 nM
- EC50 [7]: > 10000 nM
- IC50 [7]: > 10000 nM
- Human GPR18 % activation [7]: 12%
- Human GPR18 % inhibition [7]: > 10 (10%)
- Ki [1]: 4.96 ± 1.37 nM
- Ki [2]: 3.77 ± 0.25 nM
- EC50 ([8]; ref Banister et al. [42]): 0.48 nM
- EC50 [10]: > 10000 nM
- IC50 [10]: > 10000 nM
- Human GPR55 % activation ([10]; value in parentheses): 15%

SMILES: CC(C)[C@H](NC(=O)c1nn(Cc2cccc(F)c2)c2ccccc12)C(N)=O [compound 18, AB-FUBINACA (3-F-benzyl-isomer)]
- EC50 [7]: > 10000 nM
- IC50 [7]: > 10000 nM
- Human GPR18 % activation [7]: > 10 (10%)
- Ki [1]: 12.6 ± 0.7 nM
- Ki [2]: 52.2 ± 10.2 nM
- Ki [11]: 51.1 nM
- EC50 [10]: > 10000 nM
- IC50 [10]: > 10000 nM
- Human GPR55 % activation ([10]; value in parentheses): 11%

SMILES: CC(C)[C@H](NC(=O)c1nn(Cc2ccccc2F)c2ccccc12)C(N)=O [compound 19, AB-FUBINACA (2-F-benzyl-isomer)]
- EC50 [7]: > 10000 nM
- IC50 [7]: > 10000 nM
- Human GPR18 % activation [7]: 11%
- Ki [1]: 6.91 ± 3.42 nM
- Ki [2]: 25 ± 6.1 nM
- Ki [11]: 4.69 nM
- EC50 [10]: > 10000 nM
- IC50 [10]: > 10000 nM
- Human GPR55 % activation ([10]; value in parentheses): 15%

SMILES: CC(C)[C@H](NC(=O)c1nn(CC2CCCCC2)c2ccccc12)C(N)=O [compound 20]
- Ki [12]: 0.45 nM
- EC50 [7]: > 10000 nM
- IC50 [7]: > 10000 nM
- Human GPR18 % activation [7]: 13%
- Human GPR18 % inhibition [7]: 11%
- Ki [1]: 1.72 ± 0.14 nM
- Ki [13]: 0.78 nM
- Ki [2]: 1.91 ± 0.2 nM
- EC50 [10]: > 10000 nM
- IC50 [10]: > 10000 nM
- Human GPR55 % activation ([10]; value in parentheses): 8%

SMILES: CC(C)(C)[C@H](NC(=O)c1cn(CCCCCF)c2ccccc12)C(N)=O [compound 21, 5F-ADBICA]
- EC50 ([5]; ref Banister et al. [42]): 1.2 nM
- EC50 [7]: > 10000 nM
- IC50 [7]: > 10000 nM
- Human GPR18 % activation [7]: 27%
- Ki [1]: 2.72 ± 0.35 nM
- Ki [2]: 1.83 ± 0.11 nM
- EC50 ([8]; ref Banister et al. [42]): 0.77 nM
- EC50 [10]: > 10000 nM
- IC50 [10]: > 10000 nM
- Human GPR55 % activation ([10]; value in parentheses): 8%

SMILES: CC(C)(C)[C@H](NC(=O)c1nn(CCCCCF)c2ccccc12)C(N)=O [compound 23, 5F-ADB-PINACA]
- EC50 ([5]; ref Banister et al. [42]): 2.1 nM
- EC50 [7]: > 10000 nM
- IC50 [7]: > 10000 nM
- Human GPR18 % activation [7]: 9%
- Human GPR18 % inhibition [7]: 21%
- Ki [1]: 1.43 ± 0.69 nM
- Ki [2]: 0.694 ± 0.078 nM
- EC50 ([8]; ref Banister et al. [42]): 0.24 nM
- EC50 [10]: > 10000 nM
- IC50 [10]: > 10000 nM
- Human GPR55 % activation ([10]; value in parentheses): 18%

Reference: PMC6002460, “Pharmacological evaluation of new constituents of “Spice”: synthetic cannabinoids based on indole, indazole, benzimidazole and carbazole scaffolds” (Forensic Toxicology, 2018)
